# Columns and labels:
# [1] = system: hSERT, hNET, hDAT; assay: Human transporter binding: rank order and range of potency over the three transporters; conditions: from KD values
# Description: The program was modified to calculate the Hill coefficient (nH). Data are presented as geometric mean±S.E.M. of at least three independent experiments. One-component models and two-component models were compared using the root mean square error of each fit and the F test.
# [2] = system: rat 5-HT, NE and DA transport, synaptosomal preparations; assay: Rat brain synaptosomal transport: rank order of potency; type: biochemical; conditions: from Ki values; S = 5HT, N = NE, D = DA
# Procedure: The dissected tissues were separately homogenized in 20 volumes (cortical) or 40 volumes (striatal) of ice-cold, oxygenated HEPES buffer 0.32 M sucrose containing 11 mM glucose (pH 7.4) in a glass Potter-Elvehjem homogenizer with Teflon® pestle (8 strokes, 900 rpm). The homogenates were centrifuged at 1,000×g for 10 minutes. The resulting supernatant was decanted and further centrifuged at 20,000×g for 20 minutes at 4° C. […] The synaptosomal protein concentration was determined by using the BCA assay (Pierce Biotechnology Inc, Rockford, Ill.), according to the manufacturer's instructions. Synaptosomal protein (1.0-2.5 mg) was suspended in 1 mL oxygenated incubation buffer as defined above. Test amine compound was pre-incubated with the synaptosomal preparation for 30 minutes at 37° C. in a shaking water bath (80 oscillations/minute).
# [3] = system: male C57BL/6J mice; assay: Tail suspension test (TST) in mice; type: in vivo, mouse; conditions: mice, 15 mg/kg IP, FIG. 10A
# Procedure: When mice are suspended by their tail, there is an initial period of agitation, followed by immobility. This test identifies antidepressant compounds, which decrease the duration of immobility.
# Test compounds were prepared by formulating the compounds with a pharmaceutically acceptable carrier such as saline. […] Each mouse was then subjected to the tail-suspension test (TST). Each mouse (n>3) was suspended by its tail 45 cm above the table top with the use of adhesive tape placed 1 cm from the tip of its tail. Behavior was scored every 5 seconds throughout the 6-minute test as either mobile or immobile (FIG. 10A-D) or total duration of immobility during the 6-minute test (FIGS. 10E and 10H). Mice were considered immobile only when hanging passively and completely motionless. Scores for each behavior were expressed as total counts per 6-minute session.
# [4] = system: mice; assay: Locomotor activity in motility chamber, mice; type: in vivo, mouse; conditions: 15 mg/kg IP, 10 minute intervals for 3 hours, FIG. 11
# [5] = system: Male Sprague-Dawley rats; assay: Forced swim test in rats; type: in vivo, rat; conditions: 15 mg/kg IP, FIG. 12A
# Procedure: When rats are placed in a cylinder of water from which they cannot escape, they will remain immobile in the water for the majority of the test.
# Water was changed between trials, and the procedure involved a pretest and a 5-minute test separated by 24 hours. During the pretest, rats (adapted to the experimental room for no less than one hour) were placed in the cylinder for 15 minutes. Following this initial exposure, the rats were dried with towels and transferred to a “drying cage” situated under a warming lamp. […] The following day, rats were transferred to the experimental room and acclimated for at least one hour.
# The rat was considered immobile when floating motionless or making only those movements necessary to keep its head above the surface of the water. Scores for each behavior (swimming or immobility) were expressed as total counts per 5-minute session. Statistical analysis was performed using ANOVA followed by the Tukey test for post-hoc comparisons.
smiles,measurement,setting,value
"CN(C)CCCN1c2ccccc2CCc2ccccc21 [Imipramine, reference compound]","Potency (rank-order of potency of binding; S = hSERT, N = hNET, D = hDAT)",[1],S > N > D
same,"Potency (rank order, transport into rat brain synaptosomal preparations)",[2],N > S > D
same,Mobility in TST (counts per 6-minute session) vs saline,[3]; 30 minutes before testing,significantly (P<0.02) increased mobility
same,Immobility in TST (counts per 6-minute session) vs saline,[3],significantly (P<0.02) reduced immobility
same,Effect on locomotor activity,[4],Only d-amphetamine caused a significant effect on locomotor activity
same,Immobility in forced swim test vs saline,[5],statistically (P<0.04) less immobility
same,Swimming in forced swim test vs saline,[5],statistically (P<0.04) more swimming behavior
